Source: the supplement of paper PMC6045584
± gives the standard deviation of the averaged measurements.

How the values were obtained:
[1] = compound: COc1cc2nccc(Oc3ccc(NC(=O)C4(C(=O)Nc5ccc(F)cc5)CC4)cc3)c2cc1OC [CABOZANTINIB]; experiment: surviving fraction relative to DMSO-only wells; higher = less growth inhibition; settings: exposure time: 5 days
In short: (§1)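 Inhibitors were tested at 0.5, 1, 5, 10, 50, 100, 500 and 1000 nM, applied continuously for five days beginning 24 hours after log-phase tumour cells were seeded at 250–500 per well in 384-well plates. CellTiter-Glo luminescence served as the viability measure, expressed as surviving fraction against the median of DMSO-only wells. Each line, screened three times, was kept only with replicate Pearson r >0.7 and median Z' >0.3.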

[2] = compound: Cn1ncnc1[C@H]1c2n[nH]c(=O)c3cc(F)cc(c23)N[C@@H]1c1ccc(F)cc1 [BMN-673]; experiment: as above; settings: exposure time: 5 days
In short: as §1

Test System | surviving fraction ([1]; 0.5 nM) | surviving fraction ([1]; 1 nM) | surviving fraction ([1]; 5 nM) | surviving fraction ([1]; 10 nM) | surviving fraction ([1]; 50 nM) | surviving fraction ([1]; 100 nM) | surviving fraction ([1]; 500 nM) | surviving fraction ([1]; 1000 nM) | surviving fraction ([2]; 0.5 nM) | surviving fraction ([2]; 1 nM) | surviving fraction ([2]; 5 nM) | surviving fraction ([2]; 10 nM) | surviving fraction ([2]; 50 nM) | surviving fraction ([2]; 100 nM) | surviving fraction ([2]; 500 nM) | surviving fraction ([2]; 1000 nM)
DU4475 BREAST | 0.782 ± 0.12 | 0.874 ± 0.076 | 0.868 ± 0.053 | 0.93 ± 0.16 | 0.899 ± 0.19 | 0.781 ± 0.085 | 0.908 ± 0.096 | 1.03 ± 0.12 | 1.1 ± 0.049 | 0.916 ± 0.11 | 0.57 ± 0.055 | 0.456 ± 0.071 | 0.325 ± 0.068 | 0.278 ± 0.054 | 0.284 ± 0.052 | 0.293 ± 0.027
H23 LUNG | 0.962 ± 0.052 | 0.931 ± 0.021 | 0.974 ± 0.022 | 0.924 ± 0.032 | 0.945 ± 0.043 | 0.936 ± 0.053 | 0.937 ± 0.066 | 0.925 ± 0.028 | 1.07 ± 0.04 | 1.07 ± 0.056 | 1.06 ± 0.054 | 0.937 ± 0.014 | 0.779 ± 0.024 | 0.688 ± 0.055 | 0.507 ± 0.23 | 0.238 ± 0.02
HCC78 LUNG | 0.826 ± 0.047 | 0.884 ± 0.047 | 0.991 ± 0.044 | 0.608 ± 0.16 | 0.315 ± 0.049 | 0.281 ± 0.088 | 0.185 ± 0.023 | 0.221 ± 0.058 | 1.06 ± 0.077 | 1 ± 0.097 | 1.04 ± 0.098 | 0.931 ± 0.21 | 0.678 ± 0.19 | 0.47 ± 0.084 | 0.117 ± 0.013 | 0.0383 ± 0.013
HCC202 BREAST | 1.12 ± 0.14 | 1.11 ± 0.079 | 1.2 ± 0.031 | 1.15 ± 0.17 | 1.1 ± 0.28 | 1.13 ± 0.065 | 1.31 ± 0.12 | 1.09 ± 0.098 | 0.932 ± 0.39 | 1.15 ± 0.44 | 0.688 ± 0.18 | 0.769 ± 0.34 | 0.661 ± 0.13 | 0.566 ± 0.14 | 0.81 ± 0.05 | 0.671 ± 0.11
HCC1395 BREAST | 1.12 ± 0.073 | 1.02 ± 0.06 | 1.14 ± 0.045 | 1.23 ± 0.034 | 1.38 ± 0.14 | 1.33 ± 0.053 | 1.13 ± 0.085 | 1.2 ± 0.086 | 1 ± 0.13 | 0.991 ± 0.081 | 0.86 ± 0.054 | 0.967 ± 0.045 | 0.892 ± 0.064 | 0.8195 ± 0.0048 | 0.715 ± 0.039 | 0.637 ± 0.12
HCC1806 BREAST | 0.863 ± 0.075 | 1.06 ± 0.057 | 1.092 ± 0.0075 | 1.06 ± 0.073 | 1.19 ± 0.078 | 1.08 ± 0.12 | 1.08 ± 0.021 | 1.09 ± 0.13 | 0.904 ± 0.043 | 0.875 ± 0.021 | 0.451 ± 0.035 | 0.313 ± 0.021 | 0.234 ± 0.0079 | 0.186 ± 0.0061 | 0.171 ± 0.017 | 0.168 ± 0.015
HCC1954 BREAST | 0.955 ± 0.018 | 1.04 ± 0.02 | 1.03 ± 0.13 | 1.02 ± 0.16 | 1.1 ± 0.073 | 0.921 ± 0.0035 | 1.0215 ± 0.00071 | 1.02 ± 0.055 | 1.01 ± 0.17 | 1.34 ± 0.34 | 1.25 ± 0.17 | 1.21 ± 0.12 | 0.907 ± 0.038 | 0.804 ± 0.042 | 0.71 ± 0.12 | 0.74 ± 0.072
HCT15 LARGE INTESTINE | 0.952 ± 0.044 | 0.95 ± 0.06 | 0.943 ± 0.044 | 0.951 ± 0.073 | 0.966 ± 0.036 | 1.02 ± 0.037 | 0.994 ± 0.065 | 1.04 ± 0.06 | 1.09 ± 0.078 | 1.03 ± 0.086 | 1.06 ± 0.015 | 0.945 ± 0.021 | 0.584 ± 0.14 | 0.44 ± 0.058 | 0.146 ± 0.022 | 0.102 ± 0.0078
HELA CERVIX | 1.01 ± 0.028 | 0.98 ± 0.021 | 0.999 ± 0.033 | 0.955 ± 0.042 | 1.08 ± 0.036 | 1.06 ± 0.05 | 1.11 ± 0.088 | 1.1 ± 0.028 | 1 ± 0.045 | 1 ± 0.058 | 1.07 ± 0.038 | 1.031 ± 0.0089 | 1.1 ± 0.11 | 1.14 ± 0.11 | 0.736 ± 0.037 | 0.606 ± 0.035
HOS BONE | 1.02 ± 0.011 | 1.001 ± 0.001 | 1.02 ± 0.015 | 0.9757 ± 0.008 | 1.015 ± 0.0092 | 0.984 ± 0.02 | 0.924 ± 0.019 | 0.89 ± 0.014 | 1.04 ± 0.037 | 1 ± 0.018 | 0.976 ± 0.018 | 0.974 ± 0.036 | 0.993 ± 0.04 | 0.96 ± 0.036 | 0.596 ± 0.022 | 0.282 ± 0.026
HOSMNG BONE | 0.961 ± 0.061 | 0.984 ± 0.053 | 0.885 ± 0.036 | 0.913 ± 0.1 | 0.833 ± 0.038 | 0.839 ± 0.018 | 0.314 ± 0.0085 | 0.274 ± 0.011 | 1.07 ± 0.056 | 1.04 ± 0.029 | 0.968 ± 0.017 | 1.01 ± 0.019 | 1.03 ± 0.031 | 1.05 ± 0.046 | 0.849 ± 0.047 | 0.645 ± 0.023
HSSYII SYNOVIAL | 0.909 ± 0.022 | 0.927 ± 0.067 | 0.935 ± 0.048 | 0.923 ± 0.025 | 0.963 ± 0.071 | 0.888 ± 0.014 | 0.787 ± 0.0083 | 0.671 ± 0.043 | 0.867 ± 0.022 | 0.819 ± 0.015 | 0.506 ± 0.026 | 0.34 ± 0.017 | 0.19 ± 0.0066 | 0.132 ± 0.011 | 0.0702 ± 0.0064 | 0.06017 ± 0.00029
HT1080 SOFT TISSUE | 1.05 ± 0.025 | 0.999 ± 0.021 | 1.01 ± 0.021 | 1.03 ± 0.013 | 1.01 ± 0.022 | 1.01 ± 0.014 | 0.973 ± 0.0017 | 0.965 ± 0.033 | 1 ± 0.037 | 0.967 ± 0.042 | 0.73 ± 0.024 | 0.524 ± 0.02 | 0.375 ± 0.018 | 0.312 ± 0.0085 | 0.204 ± 0.0027 | 0.187 ± 0.014
HU09 BONE | 0.945 ± 0.084 | 0.999 ± 0.11 | 0.978 ± 0.055 | 1.02 ± 0.13 | 0.885 ± 0.096 | 0.638 ± 0.06 | 0.452 ± 0.043 | 0.338 ± 0.034 | 0.97 ± 0.066 | 0.978 ± 0.056 | 0.898 ± 0.067 | 0.812 ± 0.11 | 0.486 ± 0.046 | 0.437 ± 0.038 | 0.104 ± 0.018 | 0.058 ± 0.008
HUO3N1 BONE | 1.05 ± 0.034 | 1.05 ± 0.066 | 1.02 ± 0.025 | 0.953 ± 0.0036 | 0.916 ± 0.014 | 0.861 ± 0.021 | 0.742 ± 0.07 | 0.666 ± 0.008 | 0.991 ± 0.023 | 0.998 ± 0.043 | 0.945 ± 0.038 | 0.9 ± 0.014 | 0.8017 ± 0.0063 | 0.658 ± 0.015 | 0.448 ± 0.03 | 0.357 ± 0.021
JIMT1 BREAST | 1.03 ± 0.049 | 1.04 ± 0.025 | 1.07 ± 0.029 | 1.04 ± 0.049 | 1.13 ± 0.048 | 1.1 ± 0.033 | 1.04 ± 0.043 | 1 ± 0.039 | 0.928 ± 0.041 | 0.913 ± 0.025 | 0.848 ± 0.011 | 0.822 ± 0.011 | 0.71 ± 0.035 | 0.617 ± 0.063 | 0.474 ± 0.027 | 0.395 ± 0.033
